Test results taken from patent US8993839B2, “Plant-based production of heterologous proteins” (The Regents of the University of California, priority 2010, dated 2015).

Biological target: Acidothermus cellulolyticus β-1,4-endoglucanase E1 (P. pastoris-produced) (Acidothermus cellulolyticus, UniProt P54583)
Assay: Michaelis-Menten kinetics of purified E1 (produced in P. pastoris, IMAC purified): cleavage of MUC to cellobiose and MU at various temperatures
Assay type: biochemical
Details: substrate MUC, E1 concentration by Bradford assay
Protocol: Endoglucanase activity assay: Endoglucanase (E1) cleaves methylumbelliferyl-tagged cellobiose (MUC), releasing methylumbelliferone (MU). The MU fluorescence can be measured to determine E1 activity. The relative fluorescence readings of 0.024 to 3.0 μM MU solutions were used to create a linear standard curve. Samples containing E1 were diluted so the concentration of MU released fell within the standard curve. A 60 μl aliquot of diluted supernatant was added to 540 μl of acetate buffer (200 mM acetate, pH 5.5, 100 mM NaCl) and 200 μl of substrate (500 μM MUC). 200 μl of reaction was sampled at time zero and after 30 minutes and added to 800 μl of stop buffer (150 mM glycine, pH 10). The change in fluorescence over time was measured with a VersaFluor fluorometer (Bio-Rad). Fluorescence was converted to an activity, and the specific activity reported in the literature was used to approximate the concentration of E1 in Pichia supernatants. The Michaelis-Menten kinetic parameters of purified endoglucanase were determined. The E1 was produced in P. pastoris and purified by IMAC (immobilized metal affinity chromatography). E1 cleaves the substrate (MUC) into cellobiose and a fluorophore (MU), the concentration of which can be monitored over time. When run at 65° C. and […] substrate, this is the reaction used for the activity assay for E1 in plant extracts and yeast cultures. In this set of experiments, the substrate concentration was varied to determine the kinetic parameters at different temperatures. The rate for a reaction displaying Michaelis-Menten kinetics is shown in Equation 1. The rate depends on the catalysis rate (kcat), the total enzyme concentration (ET), the adsorption/desorption rates which are lumped into the Michaelis-Menten constant (KM), and the substrate concentration (S). At high substrate concentrations (S>>KM), the rate approaches a maximum, and […] is often written as Vmax. The parameters Vmax and KM can be determined experimentally by varying the substrate concentration (S) and measuring the reaction rate (V) at each concentration. Equation 1 can be rearranged as a linear equation (Equation 2). When the reciprocal of the reaction rate (V) is plotted against the reciprocal of the substrate concentration (S), a line fitting the data points can be used to determine KM/Vmax (the slope) and 1/Vmax (y-intercept). A Bradford assay was used to determine the E1 protein concentration in each sample, and this value of ET was used to calculate the kcat values in Table 1. Table 1 depicts a summary of Michaelis-Menten parameters for E1-catalyzed degradation of MUC to MU at various temperatures.

Acidothermus cellulolyticus β-1,4-endoglucanase E1 (P. pastoris-produced), sequence (P54583 other isoform, or with tags, fused parts or gaps): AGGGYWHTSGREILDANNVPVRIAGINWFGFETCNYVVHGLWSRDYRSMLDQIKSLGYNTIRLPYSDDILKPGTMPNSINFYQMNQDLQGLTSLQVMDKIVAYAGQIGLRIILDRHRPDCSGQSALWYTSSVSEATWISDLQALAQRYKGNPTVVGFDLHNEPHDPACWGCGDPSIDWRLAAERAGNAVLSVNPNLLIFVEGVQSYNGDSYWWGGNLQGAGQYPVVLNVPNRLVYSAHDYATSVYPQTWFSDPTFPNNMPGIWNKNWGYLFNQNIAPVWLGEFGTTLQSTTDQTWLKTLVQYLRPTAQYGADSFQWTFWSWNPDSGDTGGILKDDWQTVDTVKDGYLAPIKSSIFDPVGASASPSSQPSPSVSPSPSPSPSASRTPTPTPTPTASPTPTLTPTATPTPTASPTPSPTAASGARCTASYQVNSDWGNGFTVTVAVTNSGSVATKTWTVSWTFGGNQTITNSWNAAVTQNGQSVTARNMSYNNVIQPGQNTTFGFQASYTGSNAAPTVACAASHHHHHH

Work on `Cc1cc(=O)oc2cc(O[C@@H]3O[C@H](CO)[C@@H](O[C@@H]4O[C@H](CO)[C@@H](O)[C@H](O)[C@H]4O)[C@H](O)[C@H]3O)ccc12` [MUC, methylumbelliferyl-tagged cellobiose] yielded a kcat (50 °C) of 106 ± 5 L/min, a kcat (65 °C) of 309 ± 13 L/min and a kcat (80 °C) of 667 ± 92 L/min. For the same compound, the kcat (93 °C, uncertainty approaches 100%, not used further) was 292 ± 284 L/min.
